This is an account of results in patent US9504674B2, “TrkB agonists and methods of use” (EMORY UNIVERSITY, priority 2010, dated 2016).

To fix the notation:
B1: BDNF: brain-derived neurotrophic factor, from Roche (protein, UniProt P23560 19-247, looked up)
Neurotrophic factor BDNF …: APMKEANIRGQGGLAYPGVRTHGTLESVNGPKAGSRGLTSLADTFEHVIEELLDEDQKVRPNEENNKDADLYTSRVMLSSQVPLEPPLLFLLEEYKNYLDAANMSMRVRRHSDPARRGELSVCDSISEWVTAADKKTAVDMSGGTVTVLEKVPVSKGQLKQYFYETKCNPMGYTKEGCRGIDKRHWNSQCRTTQSYVRALTMDSKKRIGWRFIRIDTSCVCTLTIKRGR

In one test the target is T1, TrkB (Rattus norvegicus, UniProt Q63604).
T1 construct: endogenous in cells; host or cells: primary rat cortical neurons (E17 embryos, 13 DIV)
T1 sequence (Q63604 32-821): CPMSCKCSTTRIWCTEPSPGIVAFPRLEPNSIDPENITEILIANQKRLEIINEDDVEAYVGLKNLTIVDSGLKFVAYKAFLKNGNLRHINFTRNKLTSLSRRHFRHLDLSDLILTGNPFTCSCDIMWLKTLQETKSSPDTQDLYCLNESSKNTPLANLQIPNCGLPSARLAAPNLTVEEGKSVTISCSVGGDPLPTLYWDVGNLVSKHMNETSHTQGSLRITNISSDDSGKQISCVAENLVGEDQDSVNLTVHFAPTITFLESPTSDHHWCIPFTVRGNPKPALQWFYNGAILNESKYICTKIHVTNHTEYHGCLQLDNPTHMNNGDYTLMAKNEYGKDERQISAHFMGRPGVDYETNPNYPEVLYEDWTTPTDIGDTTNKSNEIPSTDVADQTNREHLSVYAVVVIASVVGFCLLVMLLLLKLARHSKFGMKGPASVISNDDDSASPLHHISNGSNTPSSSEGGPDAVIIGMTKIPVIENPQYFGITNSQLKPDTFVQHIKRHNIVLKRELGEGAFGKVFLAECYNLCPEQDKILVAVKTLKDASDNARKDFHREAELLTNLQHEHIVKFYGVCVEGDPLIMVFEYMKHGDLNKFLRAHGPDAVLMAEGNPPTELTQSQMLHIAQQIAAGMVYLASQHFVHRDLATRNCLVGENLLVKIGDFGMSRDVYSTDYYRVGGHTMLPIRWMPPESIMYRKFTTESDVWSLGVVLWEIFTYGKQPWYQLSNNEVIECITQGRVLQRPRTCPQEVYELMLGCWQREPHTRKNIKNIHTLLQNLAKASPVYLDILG
In words: TrkB phosphorylation in primary rat cortical neurons (immunoblotting). The settings on record: 500 nM compound, 20 min, primary rat cortical neurons, immunoblotting. Type of test: cell-based. How it is done: Primary rat cortical neurons from E17 embryos (13 DIV) were treated with 500 nM various chemicals for 15 min. The neuronal cell lysates were collected and resolved on 10% SDS-PAGE. Immunoblotting was conducted with various antibodies. p-TrkB Y817 antibody was employed at 1:20000-40000 dilution.
Primary rat cortical neurons from E17 embryos (13 days in vitro (DIV)) were treated with 500 nM various chemicals for 15 min. The neuronal cell lysates were collected and resolved on 10% SDS-PAGE. Immunoblotting was conducted with various antibodies. p-TrkB Y817 antibody was employed at 1:20,000-40,000 dilution (top panel). Equal amount of TrkB was loaded in all of the samples (middle panel). P-Akt 473 ELISA analysis with the neuronal lysates (bottom panel).
7,8-dihydroxyflavone (7,8-DHF) is a small molecular TrkB agonist. Preliminary structure-activity relationship study (SAR) supports that 7,8-catechol moiety is essential for the agonistic effect by 7,8-DHF. To explore the structure-activity relationship (SAR) in depth, the TrkB stimulatory activity was examined by numerous flavonoid derivatives. The numeric positions and each ring's nomenclature are designated (FIG. 1A). Compounds were dissolved in DMSO, then diluted into […] with 1× PBS (final vehicle contains 10% DMSO/PBS) (FIG. 1B). Primary rat cortical neurons were treated with 500 nM compounds for 20 min. The cell lysates were analyzed by immunoblotting. […] Downstream activation of the TrkB target Akt was tightly correlated with TrkB activation patterns by these derivatives (FIG. 1C, bottom panel). As observed, the hydroxy groups on B ring can regulate 7,8-DHF's stimulatory activity on TrkB receptor. As 2′-hydroxy, especially 3′-hydroxy group, elevates the agonistic effect, whereas 4′-hydroxy group diminishes its stimulatory effect.
To compare the TrkB activation by these synthetic compounds, primary cortical cultures were prepared. Cortical neurons were treated with 500 nM of various compounds for 20 min and cell lysates were collected. […] Replacing the H-bond acceptor O atom with hydrogen bond donor NH abolishes its stimulatory effect. […] On the other hand, 7,8-DHF provoked TrkB activation with the minimal concentration of 100 nM (FIG. 2B, right panels). To further study 4′-DMA-7,8-DHF's kinetics on TrkB activation, primary neurons were treated for various time points. 4′-DMA-7,8-DHF swiftly activated TrkB as soon as 5 minutes following treatment. […] To compare the stimulatory effect on TrkB receptor in mouse brains, 1 mg/kg of the synthesized derivatives were injected into C57BL/6J mice. TrkB activation was monitored at different time points.
Additional compounds are listed as designated from a to m (FIG. 6A). The compounds were dissolved in DMSO, then diluted into 500 μM with 1× PBS (final vehicle contains 10% DMSO/PBS). The primary rat cortical neurons (13 DIV) were treated with 500 nM compounds for 20 min. The cell lysates were analyzed by immunoblotting. […] Moreover, p-Akt ELISA was monitored to quantitatively analyze the agonistic activities of these compounds.
For orientation: In western blotting, separated proteins are transferred to a membrane and probed.
In the case of `O=c1c(O)c(-c2ccc(O)c(O)c2)oc2c(O)c(O)cc(O)c12` [3,5,7,8,3′,4′-hexahydroxylatedflavone, reference compound], the “TrkB activation (phosphorylation) compared to vehicle control” value was “completely blocked TrkB phosphorylation”.
Same read-out and setting: the result for `O=c1c(O)c(-c2ccccc2O)oc2c(O)c(O)ccc12` [3,7,8,2′-tetrahydroxyflavone] reads “stimulated TrkB activation”; that for `O=c1c(O)c(-c2ccccc2)oc2cc(O)ccc12` [3,7-dihydroxyflavone], “stimulated TrkB activation”; that for `O=c1cc(-c2ccccc2)oc2c(O)c(O)cc(O)c12` [5,7,8-trihydroxyflavone], “stimulated TrkB activation”.
In the case of `O=c1cc(-c2cccc(O)c2)oc2cc(O)ccc12` [7,3′-dihydroxyflavone], the “TrkB activation (phosphorylation) compared to vehicle control” value is reported as “even more robust stimulatory effect on TrkB phosphorylation than the lead”.
Still for that read-out and setting: the result for `O=c1cc(-c2ccccc2O)oc2c(O)c(O)ccc12` [7,8,2′-trihydroxyflavone] reads “stimulated TrkB activation”; that for `O=c1cc(-c2cccc(O)c2)oc2c(O)c(O)ccc12` [7,8,3′-trihydroxyflavone], “even more robust stimulatory effect on TrkB phosphorylation than the lead”.
Still for that read-out and setting: the value for `O=c1cc(-c2ccc(O)cc2)oc2c(O)c(O)ccc12` [7,8,4′-trihydroxyflavone, reference compound] was “barely activated TrkB”.
Same read-out and setting: the value for `COc1ccc(-c2cc(=O)c3ccc(O)cc3o2)cc1` [7-hydroxy-4′methoxyflavone, reference compound] was “barely activated TrkB”.
`COc1ccc2c(=O)cc(-c3ccccc3)oc2c1O` [8-hydroxy-7-methoxyflavone, reference compound]: the “TrkB activation (phosphorylation) compared to vehicle control” value is “barely activated TrkB”.
Same read-out and setting: the value for `O=c1cc(-c2ccc(F)cc2)[nH]c2c(O)c(O)ccc12` [#2, 2-(4-fluorophenyl)-7,8-dihydroxyquinolin-4(1H)-one] was “failed to provoke TrkB activation”; that for `O=c1cc(-c2ccccc2)[nH]c2c(O)c(O)ccc12` [#3, 7,8-dihydroxy-2-phenylquinolin-4(1H)-one] was “failed to provoke TrkB activation”; that for `O=c1cc(-c2cncnc2)oc2c(O)c(O)ccc12` [#4, 7,8-dihydroxy-2(pyrimidin-5-yl)-4H-chromen-4-one] was “strongly activated TrkB”.

Still in this test, the particulars now being: BDNF 100 ng/ml, primary rat cortical neurons.
Regarding B1, the “TrkB activation (phosphorylation)” value is “strongly activated TrkB”.

In the next test the target is T2, TrkB F616A (Mus musculus, UniProt P15209, F616A).
T2 construct: from tissue; host or cells: TrkB F616A knock-in mice (brain; whole animal in the forced swim test)
T2 sequence (P15209 32-821 F616A): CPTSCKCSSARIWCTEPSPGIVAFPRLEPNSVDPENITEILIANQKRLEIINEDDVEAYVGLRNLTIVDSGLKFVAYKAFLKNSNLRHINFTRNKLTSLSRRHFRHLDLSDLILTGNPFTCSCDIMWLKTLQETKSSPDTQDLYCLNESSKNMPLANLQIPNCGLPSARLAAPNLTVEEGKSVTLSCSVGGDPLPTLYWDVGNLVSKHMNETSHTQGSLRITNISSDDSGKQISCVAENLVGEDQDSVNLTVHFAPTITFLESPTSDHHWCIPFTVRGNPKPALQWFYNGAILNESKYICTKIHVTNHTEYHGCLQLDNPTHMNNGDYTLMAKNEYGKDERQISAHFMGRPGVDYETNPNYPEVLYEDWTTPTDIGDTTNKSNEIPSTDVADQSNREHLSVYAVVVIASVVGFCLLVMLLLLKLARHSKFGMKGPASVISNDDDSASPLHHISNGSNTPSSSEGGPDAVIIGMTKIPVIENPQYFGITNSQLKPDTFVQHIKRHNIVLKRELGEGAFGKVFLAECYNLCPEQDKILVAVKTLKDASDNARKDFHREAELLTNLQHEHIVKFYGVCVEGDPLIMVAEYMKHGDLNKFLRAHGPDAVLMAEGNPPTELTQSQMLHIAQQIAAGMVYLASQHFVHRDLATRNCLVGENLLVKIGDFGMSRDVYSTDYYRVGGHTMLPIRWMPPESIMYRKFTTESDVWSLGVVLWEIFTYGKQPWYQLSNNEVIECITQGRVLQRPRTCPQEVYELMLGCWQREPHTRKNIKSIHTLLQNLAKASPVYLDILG
Briefly: Forced swim test in TrkB F616A knockin mice with or without 1NMPP1. Type of test: in vivo. The note with it: TrkB F616A knockin mice, control groups without TrkB agonist. How it is done:
Male TrkB knockin mice were given the regular drinking water or 1NMPP1 (25 μM) containing drinking water one day before we started to inject the drugs and sustained throughout the whole experiment. The indicated control (saline) and drugs were administrated for 5 days. […] None of the drugs produced a significant change in 1NMPP1 treated TrkB KI mice (n=6 to 7 mice) as compared to control.
TrkB F616A knockin mice were used to assess whether the behavior responses by 7,8-DHF and its derivative is mediated by TrkB receptor. Transgenic mice were subjected to saline or 1NMPP1 pretreatment, respectively.
Regarding `CC(C)(C)n1nc(Cc2cccc3ccccc23)c2c(N)ncnc21` [1NMPP1], the “immobility time, 1NMPP1 treated versus saline control group” value is recorded as “No significant difference”.
